≈ marks a conversion by molar mass, not a printed value. Like-named read-outs stand apart in the source and are kept apart here.
Assays:
[1] = Solubility in triacetin/benzyl alcohol 2:1 (volume/volume) solvent mixture; assay type: physicochemical; settings: 20° C.
Protocol: Florfenicol parent drug was not soluble in triacetin/benzyl alcohol 2:1 (volume/volume) even at concentrations as low as 10% (weight/volume). […] The combination of prodrug of Example 14 at 275 mg/ml and florfenicol at 100 mg/ml was soluble in triacetin/benzyl alcohol 2:1 (volume/volume) and provided a stable solution with 30% (weight/volume) content of florfenicol (Table 4, supra, entry 12).

Aqueous solubility = assay type: physicochemical; settings: aqueous medium (not further specified)
Protocol: In some therapeutic applications florfenicol is administered in concentrated organic solution subcutaneously where it is known to form localized depot of the drug which results in the desired sustained release of the drug into the circulation. In such cases solubility of florfenicol in aqueous media represents one of important factors determining the rate of the sustained release. Another important factor affecting the sustained release of florfenicol from the subcutaneous depot site is the concentration of the dosing solution and the solvent composition of the formulation. Apart from the broader range of solvents which can be used for acceptable formulations of florfenicol benzylic carbonate prodrugs these prodrugs also allow a wide range of aqueous solubilities. Solubilities achieved with these prodrugs range from slightly to dramatically lower than that of florfenicol. Reduced aqueous solubilities of such prodrugs may be useful in controlling the rate of dissolution of the prodrug at the subcutaneous depot site and may allow achieving optimized sustained release of the parent drug.

[2] = tested on: naturally occurring bovine respiratory disease (BRD); assay: Therapeutic efficacy of a single SC dose in cattle with naturally occurring bovine respiratory disease; assay type: in vivo
Description: Therapeutic efficacy of a single dose of Nuflor® (Schering-Plough Animal Health) was compared with a single dose of the prodrug compound of Example 2 after SC administration in cattle suffering from naturally occurring bovine respiratory disease (BRD).

[3] = In vivo release of florfenicol: plasma levels after prodrug administration to cattle; settings: for AUC: bovine, plasma, sc, 40 mg/kg
Protocol: The pharmacokinetic profile of active antibiotic after prodrug administration, in vivo, was determined, as follows: • 1. In vivo release of active antibiotic confirmed in two different animal species: • The prodrug compound of Example 18 was administered by an intravenous (“IV”) route to rat and cattle subjects, followed by determination of florfenicol concentrations in the plasma collected over time. • The data of Table 8, below, illustrates the plasma levels of florfenicol that resulted following IV administration of the prodrug compound of Example 18, to both rat and cattle. • 2. Active antibiotic is released from the prodrug irrespective of route of administration of the prodrug: • The data of Table 9, below, illustrates the plasma levels of florfenicol that resulted following administration of the prodrug compound of Example 2, by two different routes, i.e., IV and subcutaneous (“SC”). • 3. A dose-dependant increase in the release of active moiety: • The data of table 10, below, confirms a dose-dependent increase in the plasma levels of active antibiotic (florfenicol) following administration of rising doses of prodrug compound of Example 2. • 4. Time of release of active moiety: • a. […] The data of tables 13 and 14, below, confirms that the active antibiotic is quickly released from the prodrug compound of Example 2, when administered by the IV and SC routes in cattle. The release kinetics of the compound of Example 2 were compared with administration in a formulation with a triacetin/benzyl alcohol (ratio of 2:1 wt/vol) and with administration in a formulation of triacetin/2-pyrrolidinone (ratio of 2:1 wt/vol). The study was conducted in cattle (n=3).

[4] = Syringeability of dosing solutions (dripping-syringe method); assay type: physicochemical; settings: 418 mg/ml (35% weight by volume florfenicol); Triacetin/benzyl alcohol - 2:1; 15° C.
[5] = In vivo release of florfenicol: plasma levels after prodrug administration to rats; design: species or system Rat; settings: IV
Protocol: The pharmacokinetic profile of active antibiotic after prodrug administration, in vivo, was determined, as follows: • 1. In vivo release of active antibiotic confirmed in two different animal species: • The prodrug compound of Example 18 was administered by an intravenous (“IV”) route to rat and cattle subjects, followed by determination of florfenicol concentrations in the plasma collected over time. • The data of Table 8, below, illustrates the plasma levels of florfenicol that resulted following IV administration of the prodrug compound of Example 18, to both rat and cattle. • 4. Time of release of active moiety: • a.

[6] = In vitro enzymatic release of parent florfenicol from prodrugs in bovine serum; assay type: in vitro ADME; settings: 37° C.
Description: The ability of a prodrug derivative of a parent drug molecule to act efficiently in vivo as a source of the free parent drug determines the utility of a particular prodrug for treatment. The prodrug's ability to release the parent drug in vivo, in the presence of endogenous enzymes, can be determined by measuring the systemic levels of the parent drug after administration of the prodrug to the animal. This releasibility can also be assessed in vitro by measuring the release of the parent drug after mixing with animal whole blood, plasma or serum. Selected benzylic carbonate prodrugs of florfenicol were tested for release of florfenicol after in vitro mixing with bovine serum. […] A general trend of more lipophilic carbonates of florfenicol showing higher rates of degradation and release seems to be present among the compounds tested.
50 microliter of stock solution of carbonate pro-drug (10 mg/mL in DMSO) was added to 5 mL donor bovine serum and mixed. Aliquots of 400 microliter of the resulting solution were transferred into 1.5 mL plastic centrifuge tubes. Each plastic tube was placed into at 37° C. water bath for incubation. Samples were removed at 0, 1, 2, 4, 8, and 24 hours, and after addition of 400 microliter of acetonitrile to stop the reaction, rapidly stirred for 30 seconds. The precipitate was removed by centrifugation on an Eppendorf 5415G at 14000 rpm for 5 minutes. The clear supernatant solution was sampled for the HPLC analysis. The peak area of florfenicol was used to calculate the conversion of the prodrugs.

CCOC(=O)O[C@H](c1ccc(S(C)(=O)=O)cc1)[C@@H](CF)NC(=O)C(Cl)Cl [Example 2, (1R,2S)-2-(2,2-dichloroacetamido)-3-fluoro-1-(4-(methylsulfonyl)phenyl)propyl ethyl carbonate]
melting point: 110 to 112 °C
Solubility at selected concentration of contained florfenicol ([1]; 10% weight/volume florfenicol): soluble
Solubility at selected concentration of contained florfenicol ([1]; 20% weight/volume florfenicol): soluble
Solubility at selected concentration of contained florfenicol ([1]; 25% weight/volume florfenicol): soluble
Solubility at selected concentration of contained florfenicol ([1]; 30% weight/volume florfenicol): soluble
Solubility at selected concentration of contained florfenicol ([1]; 35% weight/volume florfenicol): soluble
Solubility at selected concentration of contained florfenicol ([1]; 37% weight/volume florfenicol): soluble
Solubility at selected concentration of contained florfenicol ([1]; 40% weight/volume florfenicol): insoluble
solubility (Aqueous solubility): 690 µg/mL (≈ 1600 µM)
Treatment Failure (on day 10) ([2]; single S/C dose equivalent to 40 mg/kg of florfenicol (Nuflor 40 mg/kg; Example 2 48 mg/kg), animals failing out of animals treated): 5 out of 24
Temp. (day 0) ([2]; single S/C dose equivalent to 40 mg/kg of florfenicol (Nuflor 40 mg/kg; Example 2 48 mg/kg), day 0): 40.4 °C
Temp. (day 3) ([2]; single S/C dose equivalent to 40 mg/kg of florfenicol (Nuflor 40 mg/kg; Example 2 48 mg/kg), day 3): 38.8 °C
Temp. (day 10) ([2]; single S/C dose equivalent to 40 mg/kg of florfenicol (Nuflor 40 mg/kg; Example 2 48 mg/kg), day 10): 38.7 °C
efficacy compared with Nuflor ([2]; single SC dose, cattle with BRD): comparable
time of release of active antibiotic (florfenicol) after administration ([3]; IV): less than half an hour
AUC ([3]; subcutaneous administration, read-out: Total Average AUC of the compound of Example 2 (unchanged prodrug)): 38000 ng·h/mL
AUC ([3]; subcutaneous administration, read-out: Total Average AUC of the compound of Example 2 as Florfenicol Equivalent): 30400 ng·h/mL
converted to Florfenicol once absorbed from SC site ([3]; subcutaneous administration): 83.5%
Syringeability measurement: Dripping time [4]: 207 ± 3 s
Syringeability measurement: Relative to NUFLOR [4]: 0.89
time of release of active antibiotic (florfenicol) after administration [5]: less than half an hour
Florfenicol released from prodrugs (% of total) after treatment with bovine serum ([6]; 0 h): BQL^a
Florfenicol released from prodrugs (% of total) after treatment with bovine serum ([6]; 1 h): BQL
Florfenicol released from prodrugs (% of total) after treatment with bovine serum ([6]; 2 h): BQL

From US8119667B2, “Carbonates of fenicol antibiotics” (Schering-Plough Animal Health Corporation, priority 2005, dated 2012)
